Source: article PMC12606464, “Investigating NFE2L1 activators for targeted protein aggregate clearance: a follow-up study” (RSC Medicinal Chemistry, 2025)

How the values were obtained:
[1] = test system: ubiquitin-proteasome system; assay: Ub-G76V-GFP reporter degradation in U2OS cells; assay type: cell-based
Text: (§1) We next examined whether the selected RUN compounds activate the NFE2L1 pathway in a stress-independent manner, while preserving normal ubiquitin-dependent proteasomal degradation. This distinction is crucial, as the therapeutic benefit of NFE2L1 activation lies in its ability to alleviate proteotoxic stress and target disease-related proteins for degradation without compromising normal proteostasis. To assess this, U2OS cells stably expressing the short-lived fluorescent reporter Ub-G76V-GFP were treated with various concentrations of RUN compounds. […] We also examined whether compound-induced activation of NFE2L1 could be attributed to the generation of reactive oxygen species (ROS). To test this, the 3×PSMA4-ARE-LUC reporter assay was performed in the presence or absence of the antioxidant N-acetyl-L-cysteine (NAC). A decrease in reporter activity upon NAC treatment would indicate pathway activation through oxidative stress.
RUN compound (5 µM) for 8 hours. Fluorescence intensity was normalized to cell viability (measured by the alamarBlue assay) and compared to vehicle control (DMSO). Unlike the […]
as means ± SD from three independent experiments (n = 3). Statistical analysis was performed using a multiple unpaired t-test with Welch’s correction, with adjustment for multiple comparisons by the Holm–Šídák method (α = 0.05). ****p<0.0001. Detailed results of the analysis are shown in Supplementary Table S14. […]
2.4 Monitoring protein degradation using UbG76V-GFP reporter cells
U2OS cells stably expressing the Ub-G76V-GFP reporter were seeded into 96-well plates at and cultured overnight under standard conditions. On the following day, cells were treated with the indicated test compounds or DMSO vehicle control for 8 hours. After treatment, GFP fluorescence intensity was measured, providing a readout of proteasome-dependent degradation of the Ub-G76V-GFP substrate. Cell viability was then assessed in the same wells using the alamarBlue assay according to the manufacturer’s protocol. Viability values were used for normalization of fluorescence data to account for differences in cell number. Accumulation of GFP signal relative to DMSO-treated controls was interpreted as reduced degradation of UPS substrates, indicating potential effects of the compounds on the natural protein turnover.
Statistical comparison of RUN compounds with ASC-JM17 was performed using a multiple unpaired t-test with Welch’s correction, with adjustment for multiple comparisons by the Holm–Šídák method (α = 0.05) in GraphPad Prism (v 10.6.1). […]
RNA was extracted using […]
the RNeasy® Plus Micro Kit according to the manufacturer’s instructions. Complementary DNA (cDNA) was synthesized from RNA using either t he TATAA GrandScript cDNA Supermix (TATAA Biocenter) or the QuantiTect® Reverse Transcription Kit (Qiagen), following the respective protocols. Quantitative RT -PCR was performed on a LightCycler® 480 instrument (Roche Life Science) using the TATAA SYBR® Gr andMaster® Mix (TATAA […]
Biocenter). Gene expression levels were normalized to RPLP0, and relative expression was calculated using the ΔΔCt method. Data were expressed as fold change relative to the corresponding DMSO control. Statistical analysis of changes in gene expression was performed w ith a ratio paired t-test corrected for multiple comparisons using Holm-Šídák's method (α = 0.05) in GraphPad Prism (v 10.6.1).
Table S1. Sequences of primer pairs used in the qRT -PCR analysis of gene expression.

[2] = test system: NFE2L1 pathway (DDI2-dependent) in HCT116 cells; assay: 3×PSMA4-ARE-LUC reporter in HCT116 WT and DDI2 knockout cells; assay type: cell-based, human
Description: (§2) Fig. 1 (A) Targeted library screening of RUN compounds using the 3×PSMA4-ARE-LUC dual reporter assay in HEK293 cells. Cells were exposed to RUN compounds (5 μM) for 16 hours, and luciferase activity was measured. Data are presented as the mean ± SD from three independent experiments (n = 3). Results are shown as a fold change in luminescence relative to DMSO-treated cells. Selected hit compounds are highlighted in distinct colours. (B) RUN-89 specifically activates the NFE2L1 pathway. The DDI2 knockout (KO) and parental (WT) HCT116 cells were transfected with the 3×PSMA4-ARE-LUC reporter and treated with 0.5 μM bortezomib (BTZ) and 5 μM RUN-89 for 16 hours. Data are presented as the Geomean ± GeoSD of three independent experiments (n = 3). Statistical analysis was performed on log2-transformed values using two-way repeated-measures ANOVA followed by Šídak's multiple comparison test. (C) RUN-89 selectively triggers downstream signaling events associated with NFE2L1 gene expression. HEK293 cells were transfected with lipid nanoparticles (LNPs) carrying siRNAs targeting NFE2L1 or NFE2L2. LNPs formulated with non-targeting siRNA served as a negative control. Following 24 hours of incubation, cells were treated with 7.5 μM RUN-89 or DMSO (vehicle) for an additional 16 hours. Expression of the proteasomal subunit gene PSMC4 was then quantified by RT-qPCR. Data are shown as the Geomean ± GeoSD from three independent biological replicates (n = 3). Log2-transformed data were analyzed using two-way repeated-measures ANOVA with the Geisser–Greenhouse correction, followed by Tukey's multiple comparison test with individual variances computed for each comparison. Additional results for NFE2L1, NFE2L2, PSMB7, and PSMD12 are presented in SI Fig. S10.
To clarify whether the representative compound RUN-89 activates the NFE2L1-specific luciferase reporter independently of the KEAP1–NFE2L2 pathway, we used the 3×PSMA4-ARE-LUC dual reporter in previously published DDI2 knockout HCT116 cells (from ATCC CCL-247 (RRID:CVCL_0291)), in which the protease essential for NFE2L1 activation is disrupted. […] These findings indicate that RUN-89 activates the reporter construct through NFE2L1.
2 Biology Experimental Procedures […]
(§3) Cell lines were sourced from the ATCC (USA) and/or ECACC (UK), namely HCT116 (human colorectal carcinoma), ATCC CCL-247 (RRID:CVCL_0291), HEK-293 (human embryonic kidney), ATCC CRL-1573 (RRID:CVCL_0045), SH-SY5Y (human neuroblastoma), ATCC CRL-2266 (RRID:CVCL_0019). The characteristics of DDI2 knockout cells derived from HCT116 cells have been described previously (Sedlacek et al., 2025). All cell lines were tested for mycoplasma contamination. Most of the cell lines were cultured in Dulbecco's Modified Eagle Medium (DMEM) enriched with 10% fetal bovine serum (FBS) and 2 mM L-glutamine, under standard conditions of 37 °C with 5% CO₂. DNA transfection was performed with Lipofectamine 2000, following the manufacturer's instructions. […]
alamarBlue assay according to the standard protocol.(1)
2.3 Dual luciferase phenotypic assays
HEK293-derived cells stably expressing the 3×PSMA4-ARE-Luc reporter were maintained at low to mid passage numbers before use. For each experiment, cells were transiently transfected with the pRL-TK Renilla luciferase plasmid using Lipofectamine 2000.
Approximately 5–6 hours post-transfection, cells were seeded into plate format according to the experiment (384-well plate mostly). On the following day, cells were treated with the indicated test compounds or DMSO vehicle control for 16 hours (unless otherwise specified).
After treatment, cells were lysed and luciferase activities were quantified using the Dual-Luciferase® Reporter Assay System according to the manufacturer’s instructions and established protocols.(2, 3) For assays using the CMV-XBP-Gluc construct encoding Gaussia […]

[3] = test system: NFE2L1 pathway; assay: 3×PSMA4-ARE-LUC dual luciferase reporter assay in HEK293 cells; assay type: cell-based, human; settings: Homo sapiens; 5 μM, 16 h, HEK293, luminescence relative to DMSO-treated cells; read-out: NFE2L1 activation [5 μM]
Text: In our previous work,[43] we developed a library of NFE2L1 stimulators using a cell-based luciferase reporter assay. This system was based on three tandem copies of the antioxidant response element (ARE) derived from the NFE2L1 target gene proteasome subunit alpha type-4 (3xPSMA4, PSMA4-ARE-LUC). It was designed to detect the proteasome “bounce-back” response induced by proteasome inhibitors such as MG132 or bortezomib.[22,43,45,46] The reporter assay was adapted to a 384-well format and used to evaluate a new set of RUN compounds designed around the structural framework of the RUN-47 activator. We focused on identifying compounds that increased the 3×PSMA4-ARE-LUC signal (Fig. 1A), while simultaneously assessing cytotoxicity (see the SI, Fig. S2). […] In contrast, thiourea- and urea-containing derivatives generally produced only weak to intermediate responses, rarely exceeding a fold change of 7.
as §2
Figure S1: Concentration–response of luciferase cell-based assay (PSMA4-ARE-luc2P reporter) on treatment with RUN-81, RUN-89, and RUN-94. Concentration is plotted on the X-axis. Dose–response relationships were analyzed using a four-parameter logistic curve (4PL), or a bell-shaped dose-response curve, both with weighting 1/Y^2. Dotted lines represent 95% confidence bands. Calculated EC₅₀ values, curve parameters, and asymmetrical confidence intervals are summarized in the accompanying table . Data are presented as mean ± SD from four independent experiments (n=4).
(§4) 2 Biology Experimental Procedures
(§5) Safety statement: No unexpected or unusually high safety hazards were encountered. […]
Most of the cell lines were cultured in Dulbecco's Modified Eagle Medium (DMEM) enriched with 10% fetal bovine serum (FBS) and 2 mM L-glutamine, under standard conditions of 37 °C with 5% CO₂. DNA transfection was performed with Lipofectamine 2000, following the manufacturer's instructions. Transgenic cells were then selected with either G418 (400 µg/mL) or hygromycin B (450 µg/mL), based on the selection marker encoded by the plasmid used. Cell viability was evaluated using the […]

[4] = test system: NFE2L1 pathway; assay: 3×PSMA4-ARE-LUC reporter with or without N-acetyl-L-cysteine (NAC); assay type: cell-based, human; settings: HEK293, 5 μM, 16 h
Text: as §1, with “stress. […]” for “stress.”
To determine whether RUN compounds activate the NFE2L1 pathway via reactive oxygen species (ROS) generation or through Keap1-NRF2 pathway crosstalk, we used the 3xPSMA4-ARE-LUC dual reporter assay in HEK293 cells. […] A reduction in luminescence signal upon NAC co-treatment would indicate that the compound activates the reporter via ROS-mediated mechanism or Keap1-NRF2-dependent oxidative/electrophilic stress. […]

[5] = test system: HEK293 cells; assay: alamarBlue cytotoxicity assessment in HEK293 cells; assay type: cell-based, human; settings: HEK293, alamarBlue, 16 h; concentration not given
Description: Figure S2: Concentration-dependent cytotoxicity assessment of RUN compounds.
HEK293 cells were treated for 16 hours with increasing concentrations of RUN compounds (1.25 µM; 2.5 µM; 5; 7.5 and 10 µM) or DMSO (negative control). Cell viability was determined using the alamarBlue assay following the protocol of Riss.(1) Data are presented as means ± SD from three independent experiments (n = 3). Statistical analysis was done using repeated measures one-way ANOVA with Geisser–Greenhouse correction, followed by Dunnett’s multiple comparisons test. *p<0.05. Detailed results of the analysis are shown in […]
(1 picture or pasted object on this page, not shown here)
as §4, §5
as §3, with “instructions. Transgenic cells were then selected with either G418 (400 µg/mL) or hygromycin B (450 µg/mL), based on the selection marker encoded by the plasmid used.” for “instructions.”

Structure (SMILES): COc1ccc(/C=C/C(=O)C(CC2CCC2)C(=O)/C=C/c2ccc(OC)c(OC)c2)cc1OC [ASC-JM-17, reference compound]
- Ub-G76V-GFP reporter assay, mean ([1]; U2OS cells, Fig. S3): 4.073
- Ub-G76V-GFP degradation (ubiquitin-proteasome system function) ([1]; U2OS, 5 μM, 8 h, versus DMSO): impaired proteasomal degradation

Structure (SMILES): CC(C)C[C@H](NC(=O)[C@H](Cc1ccccc1)NC(=O)c1cnccn1)B(O)O [BTZ, bortezomib, reference compound]
- Mean log2-transformed reporter fold change, HCT116 KO 04 ([2]; DDI2-/- clone KO 04, 0.5 μM BTZ or 5 μM RUN-89, 16 h, DMSO = 0): 0.1712
- Mean log2-transformed reporter fold change, HCT116 KO 11 ([2]; DDI2-/- clone KO 11, 0.5 μM BTZ or 5 μM RUN-89, 16 h, DMSO = 0): 0.1696
- Reporter activity in DDI2-deficient cells ([2]; DDI2 knockout HCT116, in contrast to wild-type cells): neither the proteasome inhibitor bortezomib nor RUN-89 induced reporter activity
- Mean log2-transformed reporter fold change, HCT116 WT ([2]; WT (DDI2+/+), 0.5 μM BTZ or 5 μM RUN-89, 16 h, DMSO = 0): 1.529

Structure (SMILES): COc1ccc(/C=C2\CNC/C(=C\c3ccc(OC)c(OC)c3)C2=O)cc1OC [RUN-84]
- fold induction at 5 µM [3]: 4
- NFE2L1 reporter activation in the presence of NAC [4]: reduction in activation
- Tox [% of ctrl.] [5]: 73% of ctrl.
